Molecules are shown by their SMILES.

The values that follow come from US8822217B2, “Method for cultivating tendon cells from pluripotent cells of mesenchymal origin” (Angewandte Biotechnologie GmbH, priority 2007, dated 2014).

The subject of assay [1] is pluripotent cells of mesenchymal origin. Nature of the assay: Cell morphology of the cell culture after treatment. Type of assay: cell-based, human. As for the experimental part:
In order to isolate pluripotent cells of mesenchymal origin, small pieces of Substantia spongiosa, biopsied from the human wing of ilium were digested at 37° C. in 2 ml of DMEM (Dulbecco's modified eagles medium with 4.5 g/l of glucose) with 2.5 mg/ml collagenase for 3 h. The cell pellet obtained from the digested pieces by multiple centrifugation was inoculated in a density of 200000 cells/cm^2 and was incubated for 24 h in DMEM with 10% foetal calf serum (FCS) and specifically at 37° C., 5% C02 and 100% humidity. One preparation gives a growth area of 60 to 180 cm^2. The culture medium was changed twice a week. Before the cells are confluent after six days, they are passaged in the usual way. The first passage is cultivated further under the standard conditions described until the logarithmic growth phase is reached after three days. The culture medium is then exchanged for a medium which was adjusted to an osmolarity of 360 mosmol/l with the aid of saccharose and, in addition to DMEM mixed with 10% FCS, contains 50 μg/ml of ascorbic acid-2-phosphate. The cells are incubated for four days in this culture medium. […] In addition, the secretion of type I collagen and its cross-linking increases. […]

Assay [2] has the same test system. Nature of the assay: Western Blot analysis for the collagen production. Type of assay: cell-based, human. To be noted: for secretion of type I collagen (double band at 130 kD): vs untreated sample a; for cross-linking of the collagen (area of 400 kD): compared to sample b. As for the experimental part:
In order to isolate pluripotent cells of mesenchymal origin, small pieces of Substantia spongiosa, biopsied from the human wing of ilium were digested at 37° C. in 2 ml of DMEM (Dulbecco's modified eagles medium with 4.5 g/l of glucose) with 2.5 mg/ml collagenase for 3 h. The cell pellet obtained from the digested pieces by multiple centrifugation was inoculated in a density of 200000 cells/cm^2 and was incubated for 24 h in DMEM with 10% foetal calf serum (FCS) and specifically at 37° C., 5% C02 and 100% humidity. One preparation gives a growth area of 60 to 180 cm^2. The culture medium was changed twice a week. Before the cells are confluent after six days, they are passaged in the usual way. The first passage is cultivated further under the standard conditions described until the logarithmic growth phase is reached after three days. The culture medium is then exchanged for a medium which was adjusted to an osmolarity of 360 mosmol/l with the aid of saccharose and, in addition to DMEM mixed with 10% FCS, contains 50 μg/ml of ascorbic acid-2-phosphate. The cells are incubated for four days in this culture medium. […] In addition, the secretion of type I collagen and its cross-linking increases. Following stimulation of the cells to enhanced collagen secretion under hyperosmolar conditions, they are cultivated in a standard culture medium for a further 12 h in order to then be investigated.

Where [3] appears, read: sample c: treatment under hyperosmolar conditions.
[4] abbreviates: sample c: treatment under hyperosmolar conditions, listed as ascorbic-2-phosphate.

In the case of `O=C1O[C@H]([C@@H](O)CO)C(O)=C1OP(=O)(O)O` [ascorbic acid-2-phosphate], in assay [1] (50 μg/ml, hyperosmolar conditions (360 mosmol/l with saccharose), four days), the “change in the cellular phenotype” value is “the cells become fibroblastic”. In assay [1] (treatment with ascorbic-2-phosphate, polygonal structure before treatment), the “cell structure (FIG. 1 vs FIG. 2)” value is “fibroblastic structures”. Further, the “secretion of type I collagen (double band at 130 kD)” value (“secretion of type I collagen” below) in assay [2] (sample b: treatment without hyperosmolar conditions) is “significant increase”. In assay [2] (setting [3]), the “resistance to digestion with pepsin” value is listed as “more resistant to digestion with pepsin”, the “cross-linking of the collagen (area of 400 kD)” value is “increases” and the “secretion of type I collagen” value is “increases”. Besides, in assay [2] (setting [4]), the “cross-linking of the collagen (area of 400 kD)” value is reported as “enhanced cross-linking” and the “secretion of type I collagen” value is “significant increase”.
